The text below walks through data of US20240417439A1, “RECOMBINANT POLYPEPTIDE FOR DISRUPTING INTERACTION OF EAG2 AND KVß2 AND THERAPEUTIC APPLICATIONS THEREOF IN CANCER TREATMENT” (The Hospital for Sick Children, priority 2021, published 2024).

Non-standard residues stand in square brackets, D forms with d. No end group written: not given here.

One experiment concerns GBM532 cells. Description: cell viability of GBM532 cells following peptide treatment. Type of experiment: cell-based, human. Particulars: increasing peptide concentrations. An excerpt:
GBM532 cells were exposed to increasing concentrations of various peptide treatments. […] The peptide K59-78^TATwas used as a negative control.

The target in experiment [1] is T1, EAG2, endogenous, mouse whole brain (mouse, UniProt Q920E3 1-988).
T1 sequence (looked up): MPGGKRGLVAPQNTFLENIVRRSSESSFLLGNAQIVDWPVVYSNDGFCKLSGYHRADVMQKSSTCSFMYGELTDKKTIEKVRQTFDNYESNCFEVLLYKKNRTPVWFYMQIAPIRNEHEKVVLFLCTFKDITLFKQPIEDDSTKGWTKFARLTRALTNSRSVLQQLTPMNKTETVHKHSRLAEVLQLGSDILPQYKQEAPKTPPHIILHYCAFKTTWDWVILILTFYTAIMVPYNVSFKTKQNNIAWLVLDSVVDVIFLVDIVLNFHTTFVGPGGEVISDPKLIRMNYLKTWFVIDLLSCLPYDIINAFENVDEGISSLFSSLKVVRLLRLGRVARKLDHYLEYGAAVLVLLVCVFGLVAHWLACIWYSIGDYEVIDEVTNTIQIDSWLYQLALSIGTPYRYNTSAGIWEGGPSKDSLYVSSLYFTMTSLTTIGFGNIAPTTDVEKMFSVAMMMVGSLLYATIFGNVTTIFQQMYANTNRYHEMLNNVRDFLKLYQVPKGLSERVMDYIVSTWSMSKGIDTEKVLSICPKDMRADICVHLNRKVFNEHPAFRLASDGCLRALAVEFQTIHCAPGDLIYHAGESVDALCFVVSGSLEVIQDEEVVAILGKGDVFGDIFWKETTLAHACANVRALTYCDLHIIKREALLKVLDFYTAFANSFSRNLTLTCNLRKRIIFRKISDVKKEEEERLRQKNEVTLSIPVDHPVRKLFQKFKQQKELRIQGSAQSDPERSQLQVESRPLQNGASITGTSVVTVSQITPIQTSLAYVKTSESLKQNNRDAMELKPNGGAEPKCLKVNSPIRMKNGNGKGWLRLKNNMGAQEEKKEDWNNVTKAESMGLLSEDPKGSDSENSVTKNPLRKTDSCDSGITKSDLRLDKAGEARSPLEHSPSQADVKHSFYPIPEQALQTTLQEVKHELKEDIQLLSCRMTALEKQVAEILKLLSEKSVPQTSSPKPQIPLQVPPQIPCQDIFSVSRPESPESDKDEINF
In words: co-IP from lysates of mouse whole brains.

Regarding “Retro-inverso-DIP: D-amino acids in reverse order: VLSSRRWGKKKIINGLVVEAKGAAYSGSGSGQPRRRQRRKKRG ([dV][dL][dS][dS][dR][dR][dW]G[dK][dK][dK][dI][dI][dN]G[dL][dV][dV][dE][dA][dK]G[dA][dA][dY][dS]G[dS]G[dS]G[dQ][dP][dR][dR][dR][dQ][dR][dR][dK][dK][dR]G)”, the cell-killing activity entry in the experiment with GBM532 cells is “Good cell-killing activity”.

B1: Kvß2, endogenous, mouse whole brain (other, UniProt P62482 1-367, looked up)
chain: MYPESTTGSPARLSLRQTGSPGMIYSTRYGSPKRQLQFYRNLGKSGLRVSCLGLGTWVTFGGQITDEMAEHLMTLAYDNGINLFDTAEVYAAGKAEVVLGNIIKKKGWRRSSLVITTKIFWGGKAETERGLSRKHIIEGLKASLERLQLEYVDVVFANRPDPNTPMEETVRAMTHVINQGMAMYWGTSRWSSMEIMEAYSVARQFNLIPPICEQAEYHMFQREKVEVQLPELFHKIGVGAMTWSPLACGIVSGKYDSGIPPYSRASLKGYQWLKDKILSEEGRRQQAKLKELQAIAERLGCTLPQLAIAWCLRNEGVSSVLLGASNAEQLMENIGAIQVLPKLSSSIVHEIDSILGNKPYSKKDYRS
Turning to B1, the binding result in experiment [1] is given as “no binding”.
